# Experimental data from patent publication US12673961B2 (Agios Pharmaceuticals, Inc., priority 2022, dated 2026).
# Biological target: T1, human PAH with the R408W mutation (Homo sapiens, UniProt P00439, R408W)
# T1 construct: expressed in transfected cells
# T1 sequence (P00439 1-452 R408W): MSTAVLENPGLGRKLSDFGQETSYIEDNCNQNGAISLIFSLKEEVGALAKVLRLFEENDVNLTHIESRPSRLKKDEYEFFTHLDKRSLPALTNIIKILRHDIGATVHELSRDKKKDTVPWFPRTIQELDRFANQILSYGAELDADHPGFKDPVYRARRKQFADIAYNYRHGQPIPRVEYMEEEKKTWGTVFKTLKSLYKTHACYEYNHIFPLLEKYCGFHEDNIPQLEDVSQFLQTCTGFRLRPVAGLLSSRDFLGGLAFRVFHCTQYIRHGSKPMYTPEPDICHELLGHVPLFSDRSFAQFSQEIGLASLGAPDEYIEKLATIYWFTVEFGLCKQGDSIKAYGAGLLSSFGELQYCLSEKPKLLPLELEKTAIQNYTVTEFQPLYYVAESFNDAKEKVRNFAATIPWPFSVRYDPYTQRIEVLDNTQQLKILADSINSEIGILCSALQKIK
# Test: Cell Based Phenylalanine Flux Assay;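 note: Ten-point dose curve from 2-fold serial dilutions, run in duplicate at 0.5% DMSO final, tracer step used 20 µM sepiapterin and 800 µM labeled phenylalanine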
# Design: scale not given here
# Details: A375 cells expressing R408W PAH; 24 hrs with compound, then 20 μM sepiapterin and 800 μM 13C9,15N-Phenylalanine for 4 hours; 13C-Tyrosine in media by LC-MS; average where tested multiple times
row,AC50,SMILES
1,"E, E",Cc1cccn2nc(C3c4nc[nH]c4CCN3C(=O)c3ocnc3C(F)(F)F)cc12 (centres unmarked)

# Same assay, conditions: A375 cells expressing R408W PAH; 24 hrs with compound, then 20 μM sepiapterin and 800 μM 13C9,15N-Phenylalanine for 4 hours; 13C-Tyrosine in media by LC-MS; average where tested multiple times; read-out: AC50
row,SMILES,AC50 [nM]
1,CC(C)(F)c1nnc(C(=O)N2CCc3[nH]cnc3C2c2cc3cc(C(F)(F)F)ccn3n2)o1 (centres unmarked),1000 to 5000
2,"FC(F)(F)c1cccn2nc([C@@H]3c4nc[nH]c4CCN3c3nnc(-c4cccnc4)o3)cc12 (single isomer, unassigned)",1000 to 5000
3,"Cc1n[nH]cc1-c1nnc(C(=O)N2CCc3[nH]cnc3[C@H]2c2cc3c(C)cccn3n2)o1 (single isomer, unassigned)",1000 to 5000
4,"Cn1ccc(-c2nnc(C(=O)N3CCc4[nH]cnc4[C@H]3c3cc4cc(C(F)(F)F)ccn4n3)o2)n1 (single isomer, unassigned)",1000 to 5000
5,"O=C(c1nnc(N2CCOCC2)o1)N1CCc2[nH]cnc2[C@H]1c1cc2ccccn2n1 (single isomer, unassigned)",1000 to 5000
6,"Cn1cc(-c2nnc(N3CCc4[nH]cnc4[C@H]3c3cc4c(C(F)(F)F)cccn4n3)o2)cn1 (single isomer, unassigned)",1000 to 5000

# Same assay, conditions: A375 cells expressing human R408W PAH; 24 hrs compound incubation; 13C-Tyrosine by LC-MS; average where tested multiple times; read-out: AC50
row,AC50 [nM],SMILES
1,500 to 1000,"O=C(c1nnc(-c2cnccn2)o1)N1CCc2[nH]cnc2[C@H]1c1cc2ccccn2n1 [Example 1362, (S)-(5-(pyrazin-2-yl)-1,3,4-oxadiazol-2-yl)(4-(pyrazolo[1,5-a]pyridin-2-yl)-6,7-dihydro-1H-imidazo[4,5-c]pyridin-5(4H)-yl)methanone]"
2,< 500,"Cn1nc(C(F)F)cc1C(=O)N1CCc2[nH]cnc2[C@H]1c1cc2c(Cl)cccn2n1 [Example 1368, (S)-(4-(4-chloropyrazolo [1,5-a]pyridin-2-yl)-6,7-dihydro-1H-imidazo[4,5-c]pyridin-5(4H)-yl)(3-(difluoromethyl)-1-methyl-1H-pyrazol-5-yl)methanone]"
3,500 to 1000,"Cc1cccn2nc([C@@H]3c4nc[nH]c4CCN3C(=O)c3nnc(-c4cn(C)cn4)o3)cc12 [Example 806, (S)-(5-(1-methyl-1H-imidazol-4-yl)-1,3,4-oxadiazol-2-yl)(4-(4-methylpyrazolo[1,5-a]pyridin-2-yl)-6,7-dihydro-1H-imidazo[4,5-c]pyridin-5(4H)-yl)methanone]"
4,> 5000,"COc1cccn2nc([C@H]3c4nc[nH]c4CCN3C(=O)c3nnc(-c4cnn(C)c4C)o3)cc12 [Example 1207, (R)-(5-(1,5-dimethyl-1H-pyrazol-4-yl)-1,3,4-oxadiazol-2-yl)(4-(4-methoxypyrazolo [1,5-a]pyridin-2-yl)-6,7-dihydro-1H-imidazo[4,5-c]pyridin-5(4H)-yl)methanone]"
5,< 500,"Cn1nc(C(F)F)cc1C(=O)N1CCc2[nH]cnc2[C@H]1c1cc2c(C(F)F)cccn2n1 [Example 1372, (S)-(3-(difluoromethyl)-1-methyl-1H-pyrazol-5-yl)(4-(4-(difluoromethyl)pyrazolo [1,5-a]pyridin-2-yl)-6,7-dihydro-1H-imidazo[4,5-c]pyridin-5(4H)-yl)methanone]"
6,> 5000,"Cc1ncccc1-c1nnc(C(=O)N2CCc3[nH]cnc3[C@@H]2c2cc3c(F)cccn3n2)o1 [Example 1329, (R)-(4-(4-fluoropyrazolo [1,5-a]pyridin-2-yl)-6,7-dihydro-1H-imidazo[4,5-c]pyridin-5(4H)-yl)(5-(2-methylpyridin-3-yl)-1,3,4-oxadiazol-2-yl)methanone]"
7,> 5000,"C[C@@H](O)c1nc(C(F)F)c(C(=O)N2CCc3[nH]cnc3[C@@H]2c2cc3ccccn3n2)o1 [Example 691, (4-(difluoromethyl)-2-((R)-1-hydroxyethyl)oxazol-5-yl)((R)-4-(pyrazolo[1,5-a]pyridin-2-yl)-6,7-dihydro-1H-imidazo[4,5-c]pyridin-5(4H)-yl)methanone]"
8,1000 to 5000,"CC(F)(F)c1ncc(C(=O)N2CCc3[nH]cnc3[C@@H]2c2cc3ccccn3n2)s1 [Example 613, (R)-(2-(1,1-difluoroethyl)thiazol-5-yl)(4-(pyrazolo [1,5-a]pyridin-2-yl)-6,7-dihydro-1H-imidazo[4,5-c]pyridin-5(4H)-yl)methanone]"
9,1000 to 5000,"Cn1nc(C(F)F)nc1C(=O)N1CCc2[nH]cnc2[C@@H]1c1cc2ccc(C(F)(F)F)cn2n1 [Example 1127, (R)-(3-(difluoromethyl)-1-methyl-1H-1,2,4-triazol-5-yl)(4-(6-(trifluoromethyl)pyrazolo[1,5-a]pyridin-2-yl)-6,7-dihydro-1H-imidazo [4,5-c]pyridin-5(4H)-yl)methanone]"
10,1000 to 5000,"O=C(c1ccnn1C(F)F)N1CCc2[nH]cnc2[C@@H]1c1cc2ccc(C(F)(F)F)cn2n1 [Example 1139, (R)-(1-(difluoromethyl)-1H-pyrazol-5-yl)(4-(6-(trifluoromethyl)pyrazolo [1,5-a]pyridin-2-yl)-6,7-dihydro-1H-imidazo[4,5-c]pyridin-5(4H)-yl)methanone]"

# Same assay, conditions: A375 cells expressing human R408W PAH; 24 hrs with compound, then sepiapterin and 13C9,15N-Phenylalanine for 4 hours; 13C-Tyrosine by LC-MS; average where tested multiple times; read-out: AC50
row,AC50 [nM],SMILES
1,< 500,"Cc1cccn2nc([C@@H]3c4nc[nH]c4CCN3C(=O)c3cnc(C(C)(C)C)o3)cc12 [Example 1920, (S)-(2-(tert-butyl)oxazol-5-yl)(4-(4-methylpyrazolo[1,5-a]pyridin-2-yl)-1,4,6,7-tetrahydro-5H-imidazo[4,5-c]pyridin-5-yl)methanone]"
2,500 to 1000,"c1ccc2oc(N3CCc4[nH]cnc4[C@H]3c3cc4ccccn4n3)nc2c1 [Example 1577, (S)-2-(4-(pyrazolo[1,5-a]pyridin-2-yl)-6,7-dihydro-1H-imidazo[4,5-c]pyridin-5(4H)-yl)benzo[d]oxazole]"
3,500 to 1000,"Cc1cccc2cc([C@@H]3c4nc[nH]c4CCN3C(=O)c3nnc(-c4cnn(C(F)(F)F)c4)o3)nn12 [Example 1446, (S)-(4-(7-methylpyrazolo [1,5-a]pyridin-2-yl)-6,7-dihydro-1H-imidazo[4,5-c]pyridin-5(4H)-yl)(5-(1-(trifluoromethyl)-1H-pyrazol-4-yl)-1,3,4-oxadiazol-2-yl)methanone]"
4,< 500,"CCc1cccn2nc([C@@H]3c4nc[nH]c4CCN3C(=O)c3nnc(-c4cnn(C)c4)o3)cc12 [Example 1924, (S)-(4-(4-ethylpyrazolo [1,5-a]pyridin-2-yl)-1,4,6,7-tetrahydro-5H-imidazo[4,5-c]pyridin-5-yl)(5-(1-methyl-1H-pyrazol-4-yl)-1,3,4-oxadiazol-2-yl)methanone]"
5,1000 to 5000,"O=C(c1nnc(C2CC2)o1)N1CCc2[nH]cnc2[C@@H]1c1cc2c(Br)cccn2n1 [Example 1909, (R)-(4-(4-bromopyrazolo [1,5-a]pyridin-2-yl)-1,4,6,7-tetrahydro-5H-imidazo [4,5-c]pyridin-5-yl)(5-cyclopropyl-1,3,4-oxadiazol-2-yl)methanone]"
6,> 5000,"FC(F)Oc1cccn2nc([C@H]3c4nc[nH]c4CCN3c3nnc(C(F)(F)F)o3)cc12 [Example 2154, (R)-2-(4-(4-(difluoromethoxy)pyrazolo[1,5-a]pyridin-2-yl)-1,4,6,7-tetrahydro-5H-imidazo[4,5-c]pyridin-5-yl)-5-(trifluoromethyl)-1,3,4-oxadiazole]"
7,< 500,"CCc1cccn2nc([C@@H]3c4nc[nH]c4CCN3C(=O)c3nnc(-c4ccccn4)o3)cc12 [Example 1895, (S)-(4-(4-ethylpyrazolo[1,5-a]pyridin-2-yl)-1,4,6,7-tetrahydro-5H-imidazo[4,5-c]pyridin-5-yl)(5-(pyridin-2-yl)-1,3,4-oxadiazol-2-yl) methanone]"
8,< 500,"Cc1c(-c2nnc(C(=O)N3CCc4[nH]cnc4[C@H]3c3cc4c(C(C)C)cccn4n3)o2)cnn1C [Example 1948, (S)-(5-(1,5-dimethyl-1H-pyrazol-4-yl)-1,3,4-oxadiazol-2-yl)(4-(4-isopropylpyrazolo [1,5-a]pyridin-2-yl)-1,4,6,7-tetrahydro-5H-imidazo[4,5-c]pyridin-5-yl)methanone]"
9,1000 to 5000,"Cn1cc(-c2nnc(C(=O)N3CCc4[nH]cnc4[C@H]3c3cc4ccc(C(F)(F)F)cn4n3)o2)cn1 [Example 2416, (S)-(5-(1-methyl-1H-pyrazol-4-yl)-1,3,4-oxadiazol-2-yl)(4-(6-(trifluoromethyl)pyrazolo[1,5-a]pyridin-2-yl)-6,7-dihydro-1H-imidazo [4,5-c]pyridin-5(4H)-yl)methanone]"
10,1000 to 5000,"O=C(c1nnc(C2CC2)o1)N1CCc2[nH]cnc2[C@H]1c1cc2ccc(F)cn2n1 [Example 2404, (S)-(5-cyclopropyl-1,3,4-oxadiazol-2-yl)(4-(6-fluoropyrazolo[1,5-a]pyridin-2-yl)-6,7-dihydro-1H-imidazo[4,5-c]pyridin-5(4H)-yl)methanone]"
11,1000 to 5000,"O=C(c1nnc(-c2ccn(C(F)F)n2)o1)N1CCc2[nH]cnc2[C@@H]1c1cc2cccc(C(F)F)n2n1 [Example 1443, (R)-(5-(1-(difluoromethyl)-1H-pyrazol-3-yl)-1,3,4-oxadiazol-2-yl)(4-(7-(difluoromethyl)pyrazolo[1,5-a]pyridin-2-yl)-6,7-dihydro-1H-imidazo[4,5-c]pyridin-5(4H)-yl)methanone]"

row,SMILES,AC50 [nM]
1,"FC(F)Oc1cccn2nc([C@@H]3c4nc[nH]c4CCN3c3ccc(C(F)(F)F)cn3)cc12 [Example 2272, (S)-4-(4-(difluoromethoxy)pyrazolo[1,5-a]pyridin-2-yl)-5-(5-(trifluoromethyl)pyridin-2-yl)-4,5,6,7-tetrahydro-1H-imidazo[4,5-c]pyridine]",< 500
